Assay results from publication PMC4774911, “Biochemical Screening of Five Protein Kinases from Plasmodium falciparum against 14,000 Cell-Active Compounds” (PLoS ONE, 2016).
Where “and” joins values, the source holds several entries; their conditions need not be identical. Equal values may be shown once.

Legend:
Assay in all cases: biochemical
IKBKE = target: T1, IKBKE (Homo sapiens, UniProt Q14164)
T1 sequence (Q14164 1-716): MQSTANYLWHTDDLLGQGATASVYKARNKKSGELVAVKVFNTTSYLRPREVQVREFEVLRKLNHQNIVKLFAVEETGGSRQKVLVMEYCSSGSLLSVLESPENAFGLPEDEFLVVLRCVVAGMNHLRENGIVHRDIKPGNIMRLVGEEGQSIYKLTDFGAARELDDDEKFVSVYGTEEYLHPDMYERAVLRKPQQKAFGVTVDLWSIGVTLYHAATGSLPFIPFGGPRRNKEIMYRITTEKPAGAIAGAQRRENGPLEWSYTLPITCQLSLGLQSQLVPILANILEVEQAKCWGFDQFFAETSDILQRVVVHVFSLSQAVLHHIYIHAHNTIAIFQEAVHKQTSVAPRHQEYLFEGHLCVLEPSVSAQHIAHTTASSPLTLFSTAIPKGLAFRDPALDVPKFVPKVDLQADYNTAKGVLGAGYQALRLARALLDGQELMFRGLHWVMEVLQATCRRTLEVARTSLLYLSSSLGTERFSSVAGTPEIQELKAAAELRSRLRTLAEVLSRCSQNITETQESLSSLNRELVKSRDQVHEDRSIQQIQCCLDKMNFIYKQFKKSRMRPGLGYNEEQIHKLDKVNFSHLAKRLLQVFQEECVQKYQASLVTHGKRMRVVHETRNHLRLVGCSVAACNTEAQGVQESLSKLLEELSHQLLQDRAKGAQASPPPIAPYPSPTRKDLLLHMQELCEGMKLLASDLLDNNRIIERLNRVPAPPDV

MAP3K11 = MAP3K11 (Homo sapiens, UniProt Q16584)
MAP3K11, sequence (Q16584 whole entry): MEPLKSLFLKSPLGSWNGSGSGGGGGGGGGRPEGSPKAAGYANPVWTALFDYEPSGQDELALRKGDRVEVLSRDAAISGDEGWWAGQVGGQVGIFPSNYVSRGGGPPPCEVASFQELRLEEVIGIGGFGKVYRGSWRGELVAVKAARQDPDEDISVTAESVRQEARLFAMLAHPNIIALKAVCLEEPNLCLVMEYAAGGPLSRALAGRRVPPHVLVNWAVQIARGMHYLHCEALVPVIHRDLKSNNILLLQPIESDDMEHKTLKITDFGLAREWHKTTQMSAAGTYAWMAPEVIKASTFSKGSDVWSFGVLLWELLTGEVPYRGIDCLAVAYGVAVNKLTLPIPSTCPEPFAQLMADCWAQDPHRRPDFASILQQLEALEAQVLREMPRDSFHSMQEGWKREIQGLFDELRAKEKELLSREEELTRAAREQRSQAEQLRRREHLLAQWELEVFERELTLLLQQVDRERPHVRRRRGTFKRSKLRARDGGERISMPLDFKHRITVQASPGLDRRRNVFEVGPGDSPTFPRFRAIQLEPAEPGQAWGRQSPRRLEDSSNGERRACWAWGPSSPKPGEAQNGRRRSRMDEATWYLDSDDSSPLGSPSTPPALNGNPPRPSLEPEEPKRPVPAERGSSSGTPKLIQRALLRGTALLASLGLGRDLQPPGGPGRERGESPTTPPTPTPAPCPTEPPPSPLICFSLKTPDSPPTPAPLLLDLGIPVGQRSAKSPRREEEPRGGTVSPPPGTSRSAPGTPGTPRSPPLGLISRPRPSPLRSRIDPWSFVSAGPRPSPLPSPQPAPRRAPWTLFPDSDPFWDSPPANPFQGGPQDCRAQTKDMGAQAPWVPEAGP

TNK2 = TNK2 (Homo sapiens, UniProt Q07912)
MINK1 = MINK1 (Homo sapiens, UniProt Q8N4C8)
RPS6KA1 = RPS6KA1 (Homo sapiens, UniProt Q15418)
MAST3 = MAST3 (Homo sapiens, UniProt O60307)
MAST3, sequence (O60307 whole entry): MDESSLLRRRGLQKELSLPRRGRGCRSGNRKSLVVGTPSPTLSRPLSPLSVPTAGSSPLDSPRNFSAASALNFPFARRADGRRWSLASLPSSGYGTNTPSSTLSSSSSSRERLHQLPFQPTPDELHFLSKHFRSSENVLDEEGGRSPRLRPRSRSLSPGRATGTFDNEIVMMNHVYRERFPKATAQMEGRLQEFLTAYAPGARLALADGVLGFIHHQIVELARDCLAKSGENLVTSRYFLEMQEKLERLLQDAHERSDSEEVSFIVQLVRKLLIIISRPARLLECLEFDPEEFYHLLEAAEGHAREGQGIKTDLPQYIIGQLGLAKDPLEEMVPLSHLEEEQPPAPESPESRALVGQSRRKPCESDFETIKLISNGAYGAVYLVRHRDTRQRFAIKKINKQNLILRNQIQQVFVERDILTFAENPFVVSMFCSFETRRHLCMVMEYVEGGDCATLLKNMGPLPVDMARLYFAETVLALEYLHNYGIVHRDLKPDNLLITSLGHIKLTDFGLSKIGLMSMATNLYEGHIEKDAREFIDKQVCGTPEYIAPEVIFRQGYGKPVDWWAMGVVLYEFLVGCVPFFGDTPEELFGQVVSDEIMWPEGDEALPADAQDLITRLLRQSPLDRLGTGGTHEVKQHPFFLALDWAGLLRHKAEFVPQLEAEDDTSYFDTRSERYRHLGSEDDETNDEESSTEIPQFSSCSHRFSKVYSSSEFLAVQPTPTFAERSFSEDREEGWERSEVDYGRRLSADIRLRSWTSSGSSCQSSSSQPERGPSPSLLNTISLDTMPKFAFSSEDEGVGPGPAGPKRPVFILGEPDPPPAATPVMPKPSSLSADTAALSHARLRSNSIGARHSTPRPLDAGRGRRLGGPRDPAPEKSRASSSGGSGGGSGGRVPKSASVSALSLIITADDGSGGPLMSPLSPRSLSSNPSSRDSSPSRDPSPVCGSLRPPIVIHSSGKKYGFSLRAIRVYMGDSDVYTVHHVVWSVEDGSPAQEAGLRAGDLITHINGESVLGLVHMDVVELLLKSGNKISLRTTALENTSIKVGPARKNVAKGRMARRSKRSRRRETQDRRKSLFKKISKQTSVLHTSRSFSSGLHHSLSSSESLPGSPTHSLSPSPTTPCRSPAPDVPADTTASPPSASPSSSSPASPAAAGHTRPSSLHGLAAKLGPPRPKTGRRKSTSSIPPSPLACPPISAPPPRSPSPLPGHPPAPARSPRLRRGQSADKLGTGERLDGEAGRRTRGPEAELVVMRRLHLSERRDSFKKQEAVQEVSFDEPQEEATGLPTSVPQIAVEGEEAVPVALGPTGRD

PRKAA1 = PRKAA1 (Homo sapiens, UniProt Q13131)
PRKAA1, sequence (Q13131 whole entry): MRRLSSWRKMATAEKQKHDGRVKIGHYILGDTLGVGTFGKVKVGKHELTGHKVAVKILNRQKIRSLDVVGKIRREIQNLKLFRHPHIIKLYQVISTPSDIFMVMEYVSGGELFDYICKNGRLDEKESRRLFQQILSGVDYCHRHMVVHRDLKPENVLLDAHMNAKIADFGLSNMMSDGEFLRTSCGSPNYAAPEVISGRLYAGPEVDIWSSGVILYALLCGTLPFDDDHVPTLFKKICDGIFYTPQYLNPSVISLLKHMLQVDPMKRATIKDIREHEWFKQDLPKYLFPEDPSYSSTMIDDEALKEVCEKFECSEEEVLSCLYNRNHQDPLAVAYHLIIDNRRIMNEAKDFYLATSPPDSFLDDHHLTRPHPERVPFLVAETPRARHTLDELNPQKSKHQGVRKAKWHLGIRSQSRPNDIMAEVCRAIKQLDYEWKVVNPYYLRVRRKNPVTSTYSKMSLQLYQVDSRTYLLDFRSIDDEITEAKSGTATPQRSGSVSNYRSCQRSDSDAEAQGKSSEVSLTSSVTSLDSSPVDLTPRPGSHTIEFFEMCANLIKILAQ

BMPR1A = BMPR1A (Homo sapiens, UniProt P36894)
BMPR1A, sequence (P36894 whole entry): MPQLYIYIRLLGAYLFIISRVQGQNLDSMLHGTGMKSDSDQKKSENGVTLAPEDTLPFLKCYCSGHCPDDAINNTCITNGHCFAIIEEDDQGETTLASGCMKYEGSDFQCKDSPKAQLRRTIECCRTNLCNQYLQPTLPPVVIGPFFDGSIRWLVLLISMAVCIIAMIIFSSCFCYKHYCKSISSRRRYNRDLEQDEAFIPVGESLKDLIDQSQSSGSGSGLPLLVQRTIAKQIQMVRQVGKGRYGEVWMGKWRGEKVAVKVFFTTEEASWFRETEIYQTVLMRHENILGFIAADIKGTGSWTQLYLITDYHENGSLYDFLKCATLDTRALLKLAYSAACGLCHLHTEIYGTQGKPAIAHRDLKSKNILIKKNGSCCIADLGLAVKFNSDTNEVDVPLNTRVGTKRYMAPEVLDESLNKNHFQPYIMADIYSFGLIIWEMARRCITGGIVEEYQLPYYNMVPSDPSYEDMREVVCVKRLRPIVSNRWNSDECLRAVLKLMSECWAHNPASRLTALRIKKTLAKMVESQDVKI

RIOK2 = RIOK2 (Homo sapiens, UniProt Q9BVS4)
RIOK2, sequence (Q9BVS4 whole entry): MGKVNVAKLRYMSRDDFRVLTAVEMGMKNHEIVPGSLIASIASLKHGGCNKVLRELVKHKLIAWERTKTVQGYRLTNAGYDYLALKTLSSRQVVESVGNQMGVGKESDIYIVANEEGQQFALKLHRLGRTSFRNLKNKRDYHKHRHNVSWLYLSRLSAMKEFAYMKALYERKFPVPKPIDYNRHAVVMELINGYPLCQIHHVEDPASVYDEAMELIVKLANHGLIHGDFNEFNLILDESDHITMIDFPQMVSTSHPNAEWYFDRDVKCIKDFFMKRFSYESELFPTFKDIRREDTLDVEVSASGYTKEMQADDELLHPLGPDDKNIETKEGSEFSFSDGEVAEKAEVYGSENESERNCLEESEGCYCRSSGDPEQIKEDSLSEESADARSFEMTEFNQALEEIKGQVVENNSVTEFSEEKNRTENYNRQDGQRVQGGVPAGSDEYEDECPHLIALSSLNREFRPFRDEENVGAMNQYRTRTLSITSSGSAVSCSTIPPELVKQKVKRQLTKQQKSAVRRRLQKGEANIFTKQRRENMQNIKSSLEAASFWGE

MAP2K3 = MAP2K3 (Homo sapiens, UniProt P46734)
MAP2K3, sequence (P46734 whole entry): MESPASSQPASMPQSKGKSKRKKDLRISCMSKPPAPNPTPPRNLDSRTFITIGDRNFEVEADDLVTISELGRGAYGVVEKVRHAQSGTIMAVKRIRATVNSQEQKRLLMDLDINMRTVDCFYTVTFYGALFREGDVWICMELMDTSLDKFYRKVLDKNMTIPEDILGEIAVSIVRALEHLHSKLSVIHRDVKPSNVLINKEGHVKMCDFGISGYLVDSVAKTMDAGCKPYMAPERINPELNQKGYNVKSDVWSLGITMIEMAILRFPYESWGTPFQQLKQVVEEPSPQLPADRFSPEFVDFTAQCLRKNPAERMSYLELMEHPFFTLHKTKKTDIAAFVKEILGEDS

MARK4 = target: T2, MARK4 (Homo sapiens, UniProt Q96L34)
T2 sequence (Q96L34 1-752): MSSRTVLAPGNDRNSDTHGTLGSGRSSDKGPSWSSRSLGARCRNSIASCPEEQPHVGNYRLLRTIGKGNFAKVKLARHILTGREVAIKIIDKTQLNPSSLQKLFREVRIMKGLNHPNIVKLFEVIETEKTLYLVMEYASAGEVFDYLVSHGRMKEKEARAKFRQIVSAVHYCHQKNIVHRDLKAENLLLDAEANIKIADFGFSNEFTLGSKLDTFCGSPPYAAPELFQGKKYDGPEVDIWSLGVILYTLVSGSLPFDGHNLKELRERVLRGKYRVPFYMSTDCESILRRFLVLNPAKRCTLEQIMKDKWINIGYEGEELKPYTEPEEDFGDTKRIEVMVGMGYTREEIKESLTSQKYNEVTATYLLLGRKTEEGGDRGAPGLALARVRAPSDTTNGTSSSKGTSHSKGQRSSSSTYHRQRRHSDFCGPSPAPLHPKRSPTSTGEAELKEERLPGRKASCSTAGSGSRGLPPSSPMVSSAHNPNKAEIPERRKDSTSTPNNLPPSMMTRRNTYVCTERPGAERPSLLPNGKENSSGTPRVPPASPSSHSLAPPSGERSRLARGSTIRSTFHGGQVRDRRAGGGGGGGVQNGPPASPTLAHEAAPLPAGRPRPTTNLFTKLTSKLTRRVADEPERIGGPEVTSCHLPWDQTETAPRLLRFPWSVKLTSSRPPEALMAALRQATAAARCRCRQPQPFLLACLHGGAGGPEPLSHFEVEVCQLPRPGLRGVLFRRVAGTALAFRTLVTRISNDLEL

MAPKAPK5 = target: T3, MAPKAPK5 (Homo sapiens, UniProt Q8IW41)
T3 sequence (Q8IW41 1-473): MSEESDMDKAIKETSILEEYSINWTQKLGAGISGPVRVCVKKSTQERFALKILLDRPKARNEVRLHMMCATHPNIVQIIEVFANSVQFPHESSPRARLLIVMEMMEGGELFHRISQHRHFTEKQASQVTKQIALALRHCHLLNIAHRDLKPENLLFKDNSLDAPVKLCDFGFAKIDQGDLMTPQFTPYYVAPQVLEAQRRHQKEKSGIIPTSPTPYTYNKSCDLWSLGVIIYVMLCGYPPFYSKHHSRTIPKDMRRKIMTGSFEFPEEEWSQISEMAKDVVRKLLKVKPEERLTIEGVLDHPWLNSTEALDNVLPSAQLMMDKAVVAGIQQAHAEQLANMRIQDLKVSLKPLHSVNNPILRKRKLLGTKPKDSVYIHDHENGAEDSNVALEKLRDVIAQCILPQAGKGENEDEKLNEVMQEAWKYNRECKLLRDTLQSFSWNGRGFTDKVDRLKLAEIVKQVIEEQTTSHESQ

DSTYK = DSTYK (Homo sapiens, UniProt Q6XUX3)
DSTYK, sequence (Q6XUX3 whole entry): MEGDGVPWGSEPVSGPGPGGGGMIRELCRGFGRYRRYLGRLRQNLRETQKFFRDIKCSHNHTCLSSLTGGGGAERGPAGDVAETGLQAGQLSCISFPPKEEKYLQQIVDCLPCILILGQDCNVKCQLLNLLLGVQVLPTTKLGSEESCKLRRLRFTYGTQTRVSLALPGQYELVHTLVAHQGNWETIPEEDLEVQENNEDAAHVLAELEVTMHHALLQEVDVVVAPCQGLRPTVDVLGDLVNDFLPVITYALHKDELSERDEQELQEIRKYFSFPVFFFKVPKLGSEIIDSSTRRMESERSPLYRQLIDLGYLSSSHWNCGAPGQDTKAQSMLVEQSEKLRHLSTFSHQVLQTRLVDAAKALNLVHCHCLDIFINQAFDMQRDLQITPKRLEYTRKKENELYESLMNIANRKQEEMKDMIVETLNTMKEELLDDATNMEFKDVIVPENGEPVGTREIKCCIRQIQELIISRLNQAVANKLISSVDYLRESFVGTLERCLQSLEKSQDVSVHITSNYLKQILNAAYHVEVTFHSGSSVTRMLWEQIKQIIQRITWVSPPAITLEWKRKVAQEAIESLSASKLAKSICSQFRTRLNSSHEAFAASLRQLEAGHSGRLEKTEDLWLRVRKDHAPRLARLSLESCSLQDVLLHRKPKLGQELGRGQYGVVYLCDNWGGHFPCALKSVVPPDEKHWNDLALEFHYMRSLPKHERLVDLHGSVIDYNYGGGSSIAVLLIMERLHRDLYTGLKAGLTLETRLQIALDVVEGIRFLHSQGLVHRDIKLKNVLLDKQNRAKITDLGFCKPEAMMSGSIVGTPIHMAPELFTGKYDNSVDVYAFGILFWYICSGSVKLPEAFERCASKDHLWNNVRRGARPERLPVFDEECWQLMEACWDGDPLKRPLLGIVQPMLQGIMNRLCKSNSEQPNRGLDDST

Structure (SMILES) | IC50 (IKBKE) [nM] | IC50 (MAP3K11) | IC50 (TNK2) [nM] | IC50 (MINK1) [nM] | IC50 (RPS6KA1) [nM] | IC50 (MAST3) [nM] | IC50 (PRKAA1) | IC50 (BMPR1A) [nM] | IC50 (RIOK2) [nM] | IC50 (MAP2K3) [nM] | IC50 (MARK4) | IC50 (MAPKAPK5) [nM] | IC50 (DSTYK) [nM]
CN1CCN(c2ccc(Nc3ncc(C#N)c(Nc4ccccc4C(N)=O)n3)cc2)CC1.Cl [TCMDC-134116] | 1800 | 89 nM | 160 | 290 | 150 | 160 | 38 nM and 49 nM |  |  |  |  |  | 
Cl.NCC1(c2nc(-c3ccc(Cl)c(O)c3)c(-c3ccncc3)[nH]2)CCCCC1 [TCMDC-141154] |  |  | > 20000 | 1400 | > 20000 | > 20000 |  | > 20000 | > 20000 | > 20000 | > 20000 nM | > 20000 | > 20000
CN(C)CC(O)COc1ccc(Nc2ncc([N+](=O)[O-])c(Nc3ccccc3O)n2)cc1.O=C(O)C(F)(F)F (centres unmarked) [TCMDC-141399] | > 20000 | 1400 nM and 630 nM |  |  |  |  | 7100 nM and 7700 nM | > 20000 | > 20000 | > 20000 | 12000 nM and 7600 nM | 320 | > 20000
